In patent publication US20070259094A1, “N-acetylglucosamine as a food and beverage additive” (priority 2002, published 2007):
Where two headings read alike, the source gives them in different places.

What was measured:
pH of aqueous solution = format: physicochemical; conditions: for pH of solution: 2 grams in 180 mL of water
Method: Two grams of glucosamine sulphate in 180 mL of water gives a solution with a pH of 6.06 and glucosamine hydrochloride gives a solution with a pH of 6.07.
A solution of 2 grams of N-acetylglucosamine in 180 mL of water has a pH of 7.40.

[1] = Bran muffin baking behaviour at 400° F. (204° C.); format: physicochemical; conditions: bran muffins baked at 204° C.
Method: Measure out 4 times 415 mL dry muffin mix (sufficient to make 6 muffins each) to make up the following formulae
Add to each dry mix 160 mL of water and ¼ of egg mixture and mix thoroughly.
Pour equal amounts into 6 muffin cups for each of the formulae.
Preheat oven to 400° F. or 204° C., bake each formula separately and observing cooking behaviour.

osteoarthritis (knee) = conditions: 4-week course, cited from earlier work; for symptoms of osteoarthritis: glucosamine sulphate 1,500 mg, ibuprofen 1,200 mg
[2] = tested on: primary knee osteoarthritis; conditions: cited from earlier work
[3] = tested on: osteoarthritis of the temporomandibular joint; conditions: cited from earlier work; for patients improved (positive clinical response = 20% decrease TMJ pain with function): GS 500 mg tid, ibuprofen 400 mg tid, p=0.73 between groups; for number of patients improved (positive clinical response): of 21 GS and 18 ibuprofen completers
[4] = cited from earlier work; for half-life: doses as high as 20 grams per human subject; for adverse events: five subjects
intestinal mucosa [5] = conditions: cited from earlier work
[6] = tested on: IL-1β-induced NO production in normal human articular chondrocytes; conditions: cited from earlier work; for effect on IL-1β-induced NO production: normal human articular chondrocytes; for Inhibitory Activity on IL-1β induced NO Production: table of various sugars
Inducible NO Synthetase = conditions: cited from earlier work; for inhibiting the production of nitric oxide synthetase: human chondrocytes stimulated with IL-1
COX-2 = conditions: cited from earlier work; for inhibiting the production of COX-2: human chondrocytes stimulated with IL-1
IL-6 = conditions: cited from earlier work; for inhibiting the production of IL-6: human chondrocytes stimulated with IL-1
[7] = cited from earlier work; for absolute bioavailability: compared with IV at 100%
[8] = cited from earlier work
intestinal mucosa [9] = assay: Incorporation of glucosamine and N-acetylglucosamine into glycoproteins of intestinal mucosa in vitro; format: cell-based, human; conditions: normal subjects, on average
From the text: Inflammatory conditions can also interfere with the incorporation of glucosamine into glycosaminoglycans. Intestinal mucosal from patients with ulcerative colitis and Crohn's disease and from patients without inflammatory disease were studied in vitro. N-acetylglucosamine is preferentially incorporated into glycoproteins over glucosamine. In normal subjects—ratio ranges were from 0.04 to 0.26 with a mean 0.097. Thus on average 10 times more N-acetylglucosamine is incorporated into macromolecules than glucosamine. In IBD the mean ratio of incorporation of glucosamine to N-acetylglucosamine is 0.039 for Crohn's and 0.031 for ulcerative colitis. In other words, 25 to 32 times more N-acetylglucosamine was incorporated into macromolecules compared to glucosamine (2).

COX-1 = conditions: constitutively expressed, human chondrocytes; cited from earlier work
[10] = tested on: severe treatment-resistant inflammatory bowel disease; conditions: cited from earlier work
[11] = number of patients of 106, three years
[12] = IL-1β-stimulated human chondrocytes
[13] = rectal administration as sole therapy

N[C@H]1C(O)O[C@H](CO)[C@@H](O)[C@@H]1O.O=S(=O)(O)O (stereo partly drawn) [Glucosamine Sulphate]
pH (1% in water) (pH of aqueous solution): 6.06
pH of solution (pH of aqueous solution): 6.06
stability in the baking process [1]: break down in the baking process
patients dropped out because of adverse events / side effects (osteoarthritis (knee)): None
symptoms of osteoarthritis (osteoarthritis (knee)): reduced symptoms
significant joint space narrowing ([2]; 1.5 grams per day, three years, versus placebo, p<0.05): did not
fasting plasma glucose concentrations ([2]; during the study): decreasing slightly
Withdrawal from Study Due to Adverse Events [2, 11]: 21
Withdrawal from Study, Lack of Efficacy [2, 11]: 3
incidence and type of adverse events versus placebo ([2]; three-year period): not different between the two groups
routine laboratory tests (system organs, metabolic functions) ([2]; three-year period): did not show any abnormalities
patients improved (positive clinical response = 20% decrease TMJ pain with function) ([3]; 90 days): 71%
patients discontinued due to dizziness ([3]; 90 days): one
patients discontinued due to stomach upset ([3]; 90 days): one
decrease in TMJ pain with function and acetaminophen use, between-group comparison ([3]; between Day 90 and 120, compared with ibuprofen): significantly greater decrease
number of patients improved (positive clinical response) [3]: Fifteen

Cl.N[C@H]1C(O)O[C@H](CO)[C@@H](O)[C@@H]1O (stereo partly drawn) [Glucosamine hydrochloride]
pH (1% in water) (pH of aqueous solution): 6.07
pH of solution (pH of aqueous solution): 6.07
stability in the baking process [1]: break down in the baking process
half-life ([4]; IV): 150 min
adverse events [4]: no adverse events reported
blood sugar when administered with 7 units of insulin ([4]; human, in vivo, iv): showed a rise in blood sugar
blood sugar when administered without insulin ([4]; human, in vivo, iv): Neither agent showed a rise in blood sugar

N[C@H]1C(O)O[C@H](CO)[C@@H](O)[C@@H]1O (stereo partly drawn) [Glucosamine]
mean ratio of incorporation of glucosamine to N-acetylglucosamine (intestinal mucosa [5]; Crohn's): 0.039
ratio of incorporation of glucosamine to N-acetylglucosamine, mean (intestinal mucosa [5]; normal subjects): 0.097
mean ratio of incorporation of glucosamine to N-acetylglucosamine (intestinal mucosa [5]; ulcerative colitis): 0.031
effect on IL-1β-induced NO production [6]: inhibit
Inhibitory Activity on IL-1β induced NO Production [6]: Weak
inhibiting the production of nitric oxide synthetase (Inducible NO Synthetase): not effective
inhibiting the production of COX-2 (COX-2): not effective
inhibiting the production of IL-6 (IL-6): not effective
absolute bioavailability ([7]; IM administration): 93%
absolute bioavailability ([7]; oral administration): 44%
administered dose excreted by the kidneys ([7]; oral route): about 10%
administered dose excreted via the feces ([7]; oral route): 11%
total body insulin sensitivity ([8]; forearm glucosamine infusion, twenty human volunteers): did not affect
baseline arteriovenous glucose differences ([8]; glucosamine infusion): not affected
forearm blood flow ([8]; glucosamine infusion): did not alter
forearm skeletal muscle glucose uptake ([8]; glucosamine infusion): did not affect

O=C[C@H](O)[C@@H](O)[C@H](O)[C@H](O)C(=O)O [Glucuronic Acid]
effect on IL-1β-induced NO production [6]: do not express this activity
Inhibitory Activity on IL-1β induced NO Production [6]: Nil

CC(=O)N[C@@H]1[C@@H](O)[C@@H](O)[C@@H](CO)O[C@@H]1O [N-Acetylgalactosmine]
Inhibitory Activity on IL-1β induced NO Production [6]: Strong

CC(=O)N[C@H]1C(O)O[C@H](CO)[C@@H](O)[C@@H]1O (stereo partly drawn) [N-Acetylglucosamine, N-acetylglucosamine]
times more N-acetylglucosamine incorporated into macromolecules than glucosamine (intestinal mucosa [9]): 10 times
pH (1% in water) (pH of aqueous solution): 7.4
pH of solution (pH of aqueous solution): 7.40
stability in the baking process [1]: stable during the baking process
ability to inhibit IL-1β-induced NO production relative to glucosamine ([6]; 10 mM concentration): 5 times
effect on IL-1β-induced NO production [6]: inhibit
Inhibitory Activity on IL-1β induced NO Production [6]: Strong
Inducible NO Synthetase Expression, Protein (Inducible NO Synthetase; [12]): inhibits
Inducible NO Synthetase Expression, mRNA (Inducible NO Synthetase; [12]): inhibits
inhibiting the production of nitric oxide synthetase (Inducible NO Synthetase): inhibiting
COX-2 Expression, Protein (COX-2; [12]): inhibits
COX-2 Expression, mRNA (COX-2; [12]): inhibits
inhibiting the production of COX-2 (COX-2): inhibiting
COX-1 Expression, Protein (COX-1): No Inhibition
IL-6 Production (IL-6; [12]): inhibits
inhibiting the production of IL-6 (IL-6): inhibiting
adverse side-effects of treatment ([10]; 3 to 6 grams daily in three divided doses): no adverse side-effects of treatment were noted in any patient
histology in all cases biopsied ([10]; in vivo): evidence of histological improvement
children with symptomatic Crohn's stricture requiring surgery ([10]; of 7, mean follow-up >2.5 years): 3
children showing clear improvement ([10]; oral adjunct therapy, 3-6 g daily, 12 children): Eight
children requiring resection ([10]; oral adjunct therapy, 12 children): four
cases of remission ([10]; rectal administration as sole therapy, nine children): two
cases of clear improvement [10, 13]: three
cases of no effect [10, 13]: two
half-life ([4]; IV): 220 min
blood sugar when administered without insulin ([4]; IV, human): Neither agent showed a rise in blood sugar
administered dose excreted in the urine ([4]; IV, in 24 hours): 54%
adverse events [4]: no adverse events reported

CC(=O)N[C@@H]1C(O)O[C@H](CO)[C@@H](O)[C@@H]1O (stereo partly drawn) [N-Acetylmannosamine]
effect on IL-1β-induced NO production [6]: do not express this activity
Inhibitory Activity on IL-1β induced NO Production [6]: Nil

CC(C)Cc1ccc(C(C)C(=O)O)cc1 (stereo not drawn) [ibuprofen]
patients dropped out because of adverse events / side effects (osteoarthritis (knee)): 10%
symptoms of osteoarthritis (osteoarthritis (knee)): reduced symptoms
patients improved (positive clinical response = 20% decrease TMJ pain with function) ([3]; 90 days): 61%
patients discontinued due to inadequate pain control ([3]; 90 days): one
patients discontinued due to stomach upset ([3]; 90 days): 3
number of patients improved (positive clinical response) [3]: 11
